What was measured:
Conditions in all cases: 72 h
[1] = system: BV-173
How it was run: (§1)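 Seeded in RPMI 1640 at densities within the linear growth range, fifteen myeloid leukaemia cell lines were dispensed into 384-well plates with acoustically pre-printed compounds spanning five tenfold doses from 1 to 10,000 nM, in duplicate. The plates were kept for 72 h at 37 °C in 5% CO2 before luminescent ATP viability was measured and normalised to vehicle and to a positive control at 10 µM. Curves were fitted with a four-parameter log-logistic model. The IC50 was taken from those curves.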

[2] = system: HEL
How it was run: as §1

[3] = system: HL-60
How it was run: as §1

[4] = system: K-562
How it was run: as §1

[5] = system: KCL-22
How it was run: as §1

[6] = system: KG-1
How it was run: as §1

[7] = system: KU-812
How it was run: as §1

[8] = system: LAMA-84
How it was run: as §1

[9] = system: ML-2
How it was run: as §1

[10] = system: MOLM-13
How it was run: as §1

[11] = system: MV4-11
How it was run: as §1

[12] = system: Mono-Mac-6
How it was run: as §1

[13] = system: NOMO-1
How it was run: as §1

[14] = system: SHI-1
How it was run: as §1

[15] = system: THP-1
How it was run: as §1

[16] = system: HL-60; test: cell viability (% survival relative to DMSO control); higher = less cytotoxic
How it was run: (§2)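 HL-60 cells grown in RPMI 1640 with 10% FBS were rescreened against the full library in 384-well plates, in duplicate, at five tenfold concentrations from 1 to 10,000 nM, alongside DMSO or 100 nM of one of three metabolic inhibitors for 72 h at 37 °C, 5% CO2. Reference wells contained DMSO or 10 μM proteasome inhibitor. Viability was read with CellTiter-Glo and normalised to these reference wells, and where reported, area under the curve was taken from four-parameter log-logistic fits in drc and PharmacoGx.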

[17] = system: BV-173; test: cell viability (% survival relative to DMSO control, bortezomib = 0%); higher = less cytotoxic
How it was run: (§3)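 Fifteen myeloid leukaemia cell lines were exposed to compounds at 1, 10, 100, 1000 or 10000 nM in 384-well plates for 72 h at 37 °C and 5% CO2. Viability was read by CellTiter-Glo luminescence and normalised, with vehicle as 100% and a 10 µM positive control as 0%. Values are percent survival averaged over duplicates.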

[18] = system: HEL; test: as above
How it was run: as §3

[19] = system: HL-60; test: as above
How it was run: as §3

[20] = system: K-562; test: as above
How it was run: as §3

[21] = system: KCL-22; test: as above
How it was run: as §3

[22] = system: KG-1; test: as above
How it was run: as §3

[23] = system: LAMA-84; test: as above
How it was run: as §3

[24] = system: ML-2; test: as above
How it was run: as §3

[25] = system: MOLM-13; test: as above
How it was run: as §3

[26] = system: MV4-11; test: as above
How it was run: as §3

[27] = system: SHI-1; test: as above
How it was run: as §3

[28] = system: HL-60; test: area under dose-response curve (viability, 1 nM-10 uM) (fraction (0-1)); higher = more sensitive
How it was run: as §2

CN(C)C(=N)NC(=N)N [Metformin]
Conditions | IC50 (cell viability) [µM]
[1] | > 10
[2] | > 10
[3] | > 10
[4] | > 10
[5] | > 10
[6] | > 10
[7] | > 10
[8] | > 10
[9] | > 10
[10] | > 10
[11] | > 10
[12] | > 10
[13] | > 10
[14] | > 10
[15] | > 10

cell viability [%], [16]
Conditions | 0.001 µM | 0.01 µM | 0.1 µM | 1 µM | 10 µM
co-treatment: AZD3965 100 nM | 94.9 | 99 | 103 | 94.9 | 100
co-treatment: DMSO vehicle | 101.9 | 95.8 | 102.3 | 95.9 | 96.73
co-treatment: GSK2194069 100 nM | 98.7 | 98 | 109 | 94 | 106
co-treatment: pictilisib 100 nM | 92 | 111 | 120 | 96.7 | 104

Conditions | area under dose-response curve, co-treatment: AZD3965 100 nM | area under dose-response curve, co-treatment: DMSO vehicle | area under dose-response curve, co-treatment: GSK2194069 100 nM | area under dose-response curve, co-treatment: pictilisib 100 nM | cell viability, 1 nM [%] | cell viability, 10 nM [%] | cell viability, 100 nM [%] | cell viability, 1000 nM [%] | cell viability, 10000 nM [%]
[17] | – | – | – | – | 107 | 90.3 | 92 | 100 | 89.2
[18] | – | – | – | – | 110 | 94.3 | 107 | 102 | 97.3
[19] | – | – | – | – | 98.2 | 93.8 | 109 | 102 | 84.3
[20] | – | – | – | – | 91.9 | 102 | 97.5 | 103 | 91.1
[21] | – | – | – | – | 98.2 | 98.9 | 98.4 | 103 | 88.1
[22] | – | – | – | – | 97.4 | 97.3 | 101 | 100 | 96.3
[23] | – | – | – | – | 95.6 | 87.9 | 97.9 | 97.7 | 92.9
[24] | – | – | – | – | 102 | 101 | 99.2 | 101 | 88.5
[25] | – | – | – | – | 105 | 91.5 | 117 | 102 | 83.5
[26] | – | – | – | – | 91.2 | 79.7 | 81.7 | 107 | 84.7
[27] | – | – | – | – | 103 | 98.3 | 104 | 106 | 93.9
[28] | < 0.0301 | < 0.0301 | < 0.0301 | < 0.0301 | – | – | – | – | –

Cl.OC[C@H]1NC[C@H](O)[C@@H](O)[C@H]1O [Migalastat]
Conditions | IC50 (cell viability) [µM]
[1] | > 10
[2] | > 10
[3] | > 10
[4] | > 10
[5] | > 10
[6] | > 10
[7] | > 10
[8] | > 10
[9] | > 10
[10] | > 10
[11] | > 10
[12] | > 10
[13] | > 10
[14] | > 10
[15] | > 10

cell viability [%], [16]
Conditions | 0.001 µM | 0.01 µM | 0.1 µM | 1 µM | 10 µM
co-treatment: AZD3965 100 nM | 106 | 108 | 102.1 | 106 | 102
co-treatment: DMSO vehicle | 103 | 103 | 96.5 | 100 | 95.4
co-treatment: GSK2194069 100 nM | 106 | 110 | 104 | 103 | 94.79
co-treatment: pictilisib 100 nM | 102 | 112 | 99.4 | 106 | 94.1

Conditions | area under dose-response curve, co-treatment: AZD3965 100 nM | area under dose-response curve, co-treatment: DMSO vehicle | area under dose-response curve, co-treatment: GSK2194069 100 nM | area under dose-response curve, co-treatment: pictilisib 100 nM | cell viability, 1 nM [%] | cell viability, 10 nM [%] | cell viability, 100 nM [%] | cell viability, 1000 nM [%] | cell viability, 10000 nM [%]
[17] | – | – | – | – | 97.1 | 102 | 113 | 105 | 87.6
[18] | – | – | – | – | 99.2 | 99.3 | 101 | 104 | 101
[19] | – | – | – | – | 92.9 | 86.1 | 113 | 106 | 106
[20] | – | – | – | – | 109 | 94.7 | 107 | 101 | 99.1
[21] | – | – | – | – | 95.6 | 90.2 | 101 | 102 | 100
[22] | – | – | – | – | 104 | 98.9 | 107 | 99.6 | 96.3
[23] | – | – | – | – | 106 | 96.8 | 103 | 99 | 92.7
[24] | – | – | – | – | 98.5 | 97.1 | 111 | 103 | 100
[25] | – | – | – | – | 83.6 | 89.2 | 104 | 116 | 101
[26] | – | – | – | – | 117 | 95.7 | 100 | 104 | 97.2
[27] | – | – | – | – | 113 | 96.2 | 109 | 102 | 107
[28] | < 0.0301 | < 0.0301 | < 0.0301 | < 0.0301 | – | – | – | – | –

OCCN1C[C@H](O)[C@@H](O)[C@H](O)[C@H]1CO [Miglitol]
Conditions | IC50 (cell viability) [µM]
[1] | > 10
[2] | > 10
[3] | > 10
[4] | > 10
[5] | > 10
[6] | > 10
[7] | > 10
[8] | > 10
[9] | > 10
[10] | > 10
[11] | > 10
[12] | > 10
[13] | > 10
[14] | > 10
[15] | > 10

cell viability [%], [16]
Conditions | 0.001 µM | 0.01 µM | 0.1 µM | 1 µM | 10 µM
co-treatment: AZD3965 100 nM | 100.7 | 103.6 | 94.8 | 102 | 100.28
co-treatment: DMSO vehicle | 96 | 101 | 96.3 | 94.9 | 99.54
co-treatment: GSK2194069 100 nM | 99.52 | 109 | 91.7 | 97.8 | 109
co-treatment: pictilisib 100 nM | 97.8 | 104 | 86.9 | 98.1 | 106

Conditions | area under dose-response curve, co-treatment: AZD3965 100 nM | area under dose-response curve, co-treatment: DMSO vehicle | area under dose-response curve, co-treatment: GSK2194069 100 nM | area under dose-response curve, co-treatment: pictilisib 100 nM | cell viability, 1 nM [%] | cell viability, 10 nM [%] | cell viability, 100 nM [%] | cell viability, 1000 nM [%] | cell viability, 10000 nM [%]
[17] | – | – | – | – | 90.6 | 110 | 89.7 | 94.6 | 105
[18] | – | – | – | – | 107 | 101 | 86.5 | 96.7 | 101
[19] | – | – | – | – | 86.9 | 95.7 | 93.1 | 105 | 87.2
[20] | – | – | – | – | 97.8 | 98.5 | 83.5 | 108 | 102
[21] | – | – | – | – | 91.5 | 108 | 96.6 | 95.9 | 106
[22] | – | – | – | – | 101 | 95.7 | 91.9 | 94.7 | 101
[23] | – | – | – | – | 97 | 97.8 | 101 | 98.5 | 93.6
[24] | – | – | – | – | 95.4 | 104 | 89.3 | 96 | 105
[25] | – | – | – | – | 92.1 | 91.3 | 93 | 123 | 99.1
[26] | – | – | – | – | 102 | 97 | 90.4 | 106 | 106
[27] | – | – | – | – | 102 | 109 | 105 | 92.8 | 103
[28] | < 0.0301 | < 0.0301 | < 0.0301 | < 0.0301 | – | – | – | – | –

Reference: the supplement of paper PMC8671470
